Reference: patent US7355069B2, “Ortho-substituted benzoic acid derivatives for the treatment of insulin resistance” (AstraZeneca AB, priority 2002, dated 2008)

Biological target: T1, human PPAR alpha (Homo sapiens, UniProt Q07869)
T1 construct: expressed in transfected cells; host or cells: U2-OS (human osteogenic sarcoma), transient electroporation with pSG5-based expression vector
T1 sequence (Q07869 239-466 limits assumed): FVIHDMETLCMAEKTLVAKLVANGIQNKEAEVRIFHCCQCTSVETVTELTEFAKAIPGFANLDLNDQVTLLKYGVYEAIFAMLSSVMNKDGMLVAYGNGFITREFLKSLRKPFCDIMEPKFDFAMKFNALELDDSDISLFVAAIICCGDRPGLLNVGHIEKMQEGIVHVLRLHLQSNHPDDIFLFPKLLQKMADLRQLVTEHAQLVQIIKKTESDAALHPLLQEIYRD
Assay: GAL4-PPAR ligand binding domain luciferase reporter transactivation assay in transiently transfected U2-OS cells
Assay type: cell-based
Details: about 24 hours exposure, concentration giving 50% of maximal activation by reference compound (ETYA)
Method: Compounds were dissolved in DMSO to obtain 16 mM stock solutions. Before assays, stock solutions were further diluted in DMSO and culture media.
U2-OS, (Osteogenic sarcoma, Human) was purchased from ATCC, USA. Cells were expanded and refrozen in batches from passage number six. Cells were cultured in Dulbecco's modified Eagle medium (DMEM) with 25 mM glucose, 2 mM glutamine or 4 mM L-alanyl-L-glutamine, 10% fetal calf serum, at 5% CO2. Phosphate buffered saline (PBS) without addition of calcium or magnesium was used. All cell culture reagents were from Gibco (USA) and 96-well cell culture plates were purchased from Wallach.
Standard recombinant DNA techniques were carried out as described by Ausubel (7). The Luciferase reporter vector, pGL5UAS (clone consists of five copies of the GAL4 DNA binding sequence, 5′-[…]-3′, cloned into the SacI/XhoI sites of pGL3-Promoter (Promega). The SacI/XhoI fragment carrying the UAS sites was constructed using annealed overlapping oligonucleotides.
Expression vectors used are based upon pSG5 (Stratagene). All vectors contain an EcoRI/NheI fragment encoding the DNA binding domain of GAL4 (encoding amino acid positions 1-145 of database accession number P04386) followed by an in-frame fusion to a fragment encoding the nuclear localisation sequence from T antigen of Polyoma Virus. The nuclear localisation sequence was constructed using annealed overlapping oligonucleotides creating NheI/KpnI sticky ends (5′-[…]-3′). The ligand binding domains from human and mouse PPARα and human and mouse PPARγ were PCR amplified as KpnI/BamHI fragments and cloned in frame to the GAL4 DNA binding domain and the nuclear localisation sequence. The sequence of all plasmid constructs used were confirmed by sequencing.
Frozen stocks of cells from passage number six were thawed and expanded to passage number eight before transfections. Confluent cells were trypsinised, washed and pelleted by centrifugation at 270×g for 2 minutes. The cell pellet was resuspended in cold PBS to a cell concentration of about 18×10^6 cells/ml. After addition of DNA, the cell suspension was incubated on ice for approximately 5 minutes before electroporation at 230 V, 960 μF in Biorad's Gene Pulser™ in 0.5 ml batches. A total of 50 μg DNA was added to each batch of 0.5 ml cells, including 2.5 μg expression vector, 25 μg reporter vector and 22.5 μg unspecific DNA (pBluescript, Stratagene).
After electroporation, cells were diluted to a concentration of 320'000 cells/ml in DMEM without phenol red, and approximately 25'000 cells/well were seeded in 96-well plates. In order to allow cells to recover, seeded plates were incubated at 37° C. for 3-4 hours before addition of test compounds. […]

EC50 [µM] | Structure (SMILES)
0.163 | CCCCCCCN(Cc1ccc(F)cc1F)C(=O)CCc1ccc(OCc2ccccc2C(=O)O)cc1 [Example 5, 2-[(4-{3-[(2,4-Difluorobenzyl)(heptyl)amino]-3-oxopropyl}phenoxy)methyl]benzoic acid]
0.168 | CCCN(Cc1ccc(F)cc1F)C(=O)CCc1ccc(OCc2ccccc2C(=O)O)cc1 [Example 10, 2-[(4-{3-[(2,4-difluorobenzyl)(propyl)amino]-3-oxopropyl}phenoxy)methyl]benzoic acid]
0.026 | CCN(Cc1ccc(C(F)(F)F)cc1)C(=O)Cc1ccc(SCc2ccccc2C(=O)O)cc1 [Example 11, 2-({[4-(2-{Ethyl[4-(trifluoromethyl)benzyl]amino}-2-oxoethyl)phenyl]thio}methyl)benzoic acid]
0.027 | CCN(Cc1ccc(Cl)cc1)C(=O)Cc1ccc(SCc2ccccc2C(=O)O)cc1 [Example 15, 2-{[(4-{2-[(4-Chlorobenzyl)(ethyl)amino]-2-oxoethyl}phenyl)thio]methyl}benzoic acid]
